The values below come from patent US5723631A, “Coumarin derivatives as retroviral inhibitors” (SmithKline Beecham Corporation, priority 1995, dated 1998).

Read-outs that look alike come from different tables or passages of the source. A value given as a limit tells only on which side of the number the result lay.

For series [1], the target named is T1, HIV reverse transcriptase (Human immunodeficiency virus type 1 group M subtype B, UniProt P03366).
T1 construct: Recombinant HIV reverse transcriptase; made in house
Put plainly: HIV reverse transcriptase inhibition (TCA precipitation assay / scintillation proximity assay). The class given is biochemical. As to the method: 5. Reverse Transcriptase Activity
RT inhibition was determined by a TCA precipitation assay as follows:
TCA-precipitation assay for HIV reverse transcriptase.
A heteropolymeric primer template was prepared by hybridizing a 691 nucleotide RNA molecule derived from the gag region of HIV [(+)-GAG^691, prepared as described in Mizrahi, V., Biochemistry, 28:9088-9094 (1989)], to a synthetic oligodeoxynucleotide (sequence: 5'-[…]-3'). The primer template (10 nM) was incubated in reaction buffer (50 mM Tris-HCl, pH 7.8, 80 mM KCl, 6 mM MgCl2, 10 mM DTT, 0.01 mg/ml BSA) with inhibitor, 10 μM dGTP, 10 μM dATP, and 28 μCi/ml of [3H]TYP (Amersham). Recombinant HIV reverse transcriptase (prepared as described in Mizrahi, et al., Arch. Biochem. Biophys., 273: 347-358, (1989)) was added to a concentration of 2-8 nM, and the reaction was incubated for 15 min at 37° C. (total reaction volume, 50 μL). The reaction was terminated with 50 μL of 20% TCA in 100 mM sodium pyrophosphate (ice cold) and chilled on ice for 15-30 min. The reaction mixture was filtered through glass fiber filters using a cell harvester, and the radioactivity that adhered to the filter was quantified using an LKB betaplate counter.
Scintillation proximity assay for HIV reverse tanscriptase.
HIV reverse transcriptase SPA enzyme assay system kits were obtained from Amersham (item number NK8972) and used as described in the package insert. Briefly, 10 μL of primer-template as supplied in the kit was added to 70 μL of dNTP/[3H]TTP solution. Ten μL of the inhibitor to be tested was added, followed by recombinant HIV RT (prepared as above) to a concentration of 2 nM. The reaction mixture was incubated for 10 min at room temperature and then terminated with 40 μL of 0.5M EDTA. Ten μL of streptavidin-SPA beads were added to each tube and the incorporated radioactivity was measured in an LKB betaplate counter.
(In a scintillation proximity assay essentially only radioactivity close to the scintillant gives light.)

Series [2] relates to human immunodeficiency virus-1 reverse transcriptase (HIV-1 RT). Particulars: literature, Kashman et al. 1992; cited from earlier work.
Series [3] is described as follows: Cellular cytotoxicity in Molt4 cells. The class given is cell-based. Particulars: human, Measured via XTT. As to the method: Cytotoxicity was tested with the CD4+cell line, Molt4. The compounds of the present invention were dissolved in DMSO in order to maximize solubility and provide a common solvent system. […] Cytotoxicity was measured as the inhibition of ^3 H-thymidine incorporation into the host cell's genome after exposure to the compounds of the present invention.
(Formazan colour is commonly taken as a measure of viable cells.)

For series [4], the target named is T2, HIV RT in which amino acid #181 was changed from tyrosine to isoleucine (Human immunodeficiency virus type 1 BH10, UniProt P03366, Y780I).
T2 construct: wild type recombinant per Mizrahi 1989
The series can be described thus: Inhibition of TIBO-resistant mutant HIV RT, amino acid #181 tyrosine to isoleucine. The class given is biochemical. Particulars: Tyr181 to isoleucine mutant.

The target in series [5] is T3, HIV RT in which amino acid #181 was changed from tyrosine to cysteine (Human immunodeficiency virus type 1 BH10, UniProt P03366, Y780C).
T3 construct: wild type recombinant per Mizrahi 1989
Put plainly: Inhibition of TIBO-resistant mutant HIV RT, amino acid #181 tyrosine to cysteine. The class given is biochemical. Particulars: Tyr181 to cysteine mutant.

A further series has as its system HIV-1 (IIIB Stock). Put plainly: HIV-1 infectivity inhibition assay (Molt4 cells). The class given is cell-based. The following applies: for IC50: read-out: IC50 (50% Inhibitory concentration for cytopathicity by HIV); for Selective Index (Cytotoxycity/IC50 ratio): cytotoxicity/IC50 ratio, 10080 min. As to the method: 6. HIV-1 Infectivity Inhibition Assay
In addition, the compounds of the present invention were assayed via a virus neutralization, or HIV infectivity assay as follows:
Bulk Infection of Molt4 Cells.
Bulk infection is used to overcome variations inherent in individual well infections. Sufficient cells and diluted virus stock for an experiment are mixed together in a T-75 flask (Corning) so that the following ratio per well of virus and cells is maintained: 100 μl containing 45 TCID50 of virus (IIIB Stock) mixed with 100 μl of Molt4 cells (3×10^4 cells/well or 3×10^5 /ml). Virus is allowed to adsorb for 90 min. at 37° C. in CO2 incubator. […] of cell/virus mixture is then aliquoted into individual wells of a 24-well plate.
Appropriate 1/200 volumes of inhibitor dilutions at 200X final concentrations in 100% DMSO are added [i.e., to the 497.5 μl of virus infected cells, 2.5 μl of inhibitor dilution of 100% DMSO or 100% DMSO alone (for virus controls) is carefully added to appropriate wells]. Dilution series are generally 5-fold dilutions starting from 50 μg/ml.
Cultures are fed with RPMI 1640+20% FBS containing 1× concentration of inhibitor series (i.e., starting concentrations present at beginning of experiment) at the following times and volumes:
(Final volume in each well=1.5 ml)
Culture supernatants are harvested at 7 days post infection. Generally 90 μl of culture medium is transferred into a 96-well culture plate containing 10 μl 5% Triton X-100 in PBS. The plate is sealed, wiped with gauze saturated with 70% ethanol+detergent and stored at -80° C. until Micro RTs or p24 ELISAs are done. The results of HIV infectivity,inhibition is presented below:
^2 50% Inhibitory concentration for cytopathicity by HIV
In general terms: Protection from cytopathic effect is a common read-out in antiviral testing.

[6] abbreviates: Compounds 22 and 23, Example 7, read-out: Reverse Transcriptase Activity: IC50.
[7] abbreviates: recombinant HIV RT, RT inhibition results table of Example 5, read-out: IC50.
Setting [8] is: Human immunodeficiency virus 1, IIIB, MOLT-4, 168 h.

With `CCCc1cc(=O)oc2c3c(c4c(c12)OC(C)(C)C=C4)O[C@H](C)[C@@H](C)[C@@H]3O` (relative stereo) [(±)-20, (±)-Calanolide A], the “HIV-1 RT-inhibitory potency compared with natural calanolide A (in words)” value in series [1] (synthetic racemate vs data reported for natural calanolide A) is “in full agreement with the data reported for natural calanolide A”.
Regarding `CCCc1cc(=O)oc2c3c(c4c(c12)OC(C)(C)C=C4)O[C@@H](C)C[C@@H]3O` (relative stereo) [Compound 22], the IC50 in series [1] (setting [6]) was found to be 1.78 µM.
Still for that read-out and setting: to `CCCc1cc(=O)oc2c3c(c4c(c12)OC(C)(C)C=C4)O[C@@H](C)C[C@H]3O` (relative stereo) [Compound 23] belongs 0.6 µM.
Turning to `CCCc1cc(=O)oc2c3c(c4c(c12)OC(C)(C)C=C4)O[C@H](C)[C@@H](C)[C@@H]3O` [Calanolide A], in series [2], the “inhibition of HIV-1 RT (in words)” value is “potent inhibitor”.
Consider `C/C=C(\C)C(=O)c1c(OC)c2c(c3c(-c4ccccc4)cc(=O)oc13)OC(C)(C)C=C2` [Calophyllolide], for which the IC50 in series [1] (setting [7]) is over 50 µM. Also, the CC50 in series [3] worked out at 4.5 µM.
Consider `C[C@@H]1[C@H](O)c2c(c3c(c4c(-c5ccccc5)cc(=O)oc24)OC(C)(C)C=C3)O[C@@H]1C` [Inophyllum A], for which, in series [1] (setting [7]), the IC50 amounted to 9 µM. The compound also showed a CC50 in series [3] of 33 µM.
On to `C[C@H]1[C@H](O)c2c(c3c(c4c(-c5ccccc5)cc(=O)oc24)OC(C)(C)C=C3)O[C@@H]1C` [Inophyllum B], for which the “activity in the RT-ase assay (in words)” value in series [1] is reported as “sub-micromolar activity”. In addition, the values for the IC50 (in series [1] (setting [7]); in the series with HIV-1 (IIIB Stock) (setting [8])) were 0.3 µM and 1400 nM, respectively. The “inhibition of mutant HIV RT relative to wild-type (in words)” value in series [4] and in series [5] was “potency comparable to that observed with wild-type HIV RT” in each case. In series [3], this compound returned a CC50 of 55 µM. In addition, the “Selective Index (Cytotoxycity/IC50 ratio)” value in the series on HIV-1 (IIIB Stock) amounted to 39.
Turning to `C[C@H]1Oc2c3c(c4c(-c5ccccc5)cc(=O)oc4c2C(=O)[C@@H]1C)OC(C)(C)C=C3` [Inophyllum C], the IC50 in series [1] (setting [7]) was over 50 µM. Further, in series [3], the CC50 worked out at 18 µM.
On to `C[C@H]1[C@@H](C)Oc2c3c(c4c(-c5ccccc5)cc(=O)oc4c2[C@@H]1O)OC(C)(C)C=C3` [Inophyllum D], for which the IC50 in series [1] (setting [7]) came out at 30 µM. In series [3], the CC50 came out at 15 µM.
The matching figures for `C[C@@H]1C(=O)c2c(c3c(c4c(-c5ccccc5)cc(=O)oc24)OC(C)(C)C=C3)O[C@@H]1C` [Inophyllum E]: over 50 µM and 6.2 µM.
For `C[C@@H]1[C@H](O)c2c(c3c(c4c(-c5ccccc5)cc(=O)oc24)O[C@@H]2[C@H]3C2(C)C)O[C@@H]1C` [Inophyllum G1], the IC50 in series [1] (setting [7]) was over 50 µM.
As for `C[C@@H]1[C@H](O)c2c(c3c(c4c(-c5ccccc5)cc(=O)oc24)O[C@H]2[C@@H]3C2(C)C)O[C@@H]1C` [Inophyllum G2], the IC50 in series [1] (setting [7]) was over 50 µM.
For the compound `C[C@@H]1[C@@H](C)Oc2c3c(c4c(-c5ccccc5)cc(=O)oc4c2[C@@H]1O)OC(C)(C)C=C3` [Inophyllum P], in series [1], the “activity in the RT-ase assay (in words)” value is given as “sub-micromolar activity”. For the same compound, the values for the IC50 (in series [1] (setting [7]); with HIV-1 (IIIB Stock) (setting [8])) were 0.6 µM and 1600 nM, respectively. Also, the “inhibition of mutant HIV RT relative to wild-type (in words)” value in series [4] and in series [5] was “potency comparable to that observed with wild-type HIV RT” throughout. The compound further displayed a CC50 in series [3] of 25 µM. Also, the “Selective Index (Cytotoxycity/IC50 ratio)” value in the series with HIV-1 (IIIB Stock) amounted to 16.
Take “tetrahydro-imidazo[4,5,1-jk][1,4]-benzodiazepin-2-(1H)-one and -thione [TIBO, reference compound]”: in the series on HIV-1 (IIIB Stock) (Molt4 cells, harvest 7 days post infection), the IC50 came to 190 nM. Besides, the “Selective Index (Cytotoxycity/IC50 ratio)” value with HIV-1 (IIIB Stock) amounted to 100.

For orientation: CC50 means the concentration giving 50% cytotoxicity.
